For three compounds, mortality, LC100 and LC50 results are on record in ChEMBL document CHEMBL1146410, “Bioactive Terpenoids from Octocorallia. 4. Three New Cembrane-Type Diterpenoids from the Soft Coral Lobophytum schoedei” (J Nat Prod, 1997).

Assay type in all cases: organism-based
Data set [1] can be described thus: Toxicity in Artemia salina larvae at 30 ppm. The following applies: in vivo, read-out: Activity.
Data set [2] deals with Oryzias latipes. The experiment in a line: Ichthyotoxicity in Oryzias latipes. The following applies: in vivo.
The test system of data set [3] is Oryzias latipes. The experiment in a line: Toxicity in Oryzias latipes. The conditions noted are these: in vivo.

On to `CC(=O)OCC1=C\CC/C(C)=C/CC[C@@]2(C)CC[C@@](C(C)C)(\C=C\1)O2` [LOBOPHYNIN A], for which, in data set [1], the mortality at 30 ppm stood at 20%. Still for that read-out and setting: the figure for `CC(=O)OCC1=C2CC/C(C)=C/CC[C@@]3(C)O[C@@H]3CC/C(C)=C/[C@H]2OC1` [LOBOPHYNIN B] is 25%.

One may read the LC50 as the concentration that kills 50% of the test population. The compound `COC(=O)/C1=C/CC/C(C)=C/[C@@H]2OCC(C)=C2CC[C@@]2(C)O[C@@H]2CC1` [LOBOPHYNIN C] had an LC100 in data set [2] of 30 ppm. This compound yielded a median lethal concentration (LC50) in data set [3] of 22.5 ppm.
